The source of these data is article PMC11075139 (RSC Advances, 2024).

For data set [1] the following is noted: for Prediction of CNS penetration: from PAMPA-BBB Pe; for BBB penetration in PAMPA assay: stated in words.
Another data set deals with CA-II. The following applies: read-out: Ki CA-II inhibition; cited from earlier work.
For the next data set, the target named is human CA-II (Homo sapiens, UniProt P00918). Kind of data set: In vitro human CA-II inhibition assay. It is filed as biochemical.
For data set [2], the target named is electric eel acetylcholinesterase (eeAChE) (Electrophorus electricus, UniProt O42275). Description: Acetylcholinesterase inhibition assay. It counts as biochemical. The following applies: for IC50: IC50 (μM) ± SEM eeAChE, mean ± SEM, n = 3; for SI (Selectivity index): Selectivity index = IC50 of BChE/IC50 of AChE.
A further data set can be described thus: in vitro. The note with it: PAMPA. On the technique in general: PAMPA measures passive passage across an artificial lipid membrane.
The target of another data set is eqBChE (Equus caballus, UniProt P81908). Kind of data set: Butyrylcholinesterase inhibition assay. It counts as biochemical.
A further data set deals with Aβ1–42 peptide (Homo sapiens, UniProt P05067). Kind of data set: Self-mediated Aβ1–42 aggregation assay. It is filed as biochemical. The following applies: for inhibition of Aβ fibrils: ThT fluorescence, after 24 hours of equimolar treatment with Aβ1–42.
The next data set has as its system SH-SY5Y cells. Description: Cell viability/neurotoxicity assay. It counts as cell-based, human.
The target in another data set is AChE. The note with it: read-out: Ki AChE; non-competitive inhibitor; cited from earlier work.

eqBChE, sequence (P81908 whole entry): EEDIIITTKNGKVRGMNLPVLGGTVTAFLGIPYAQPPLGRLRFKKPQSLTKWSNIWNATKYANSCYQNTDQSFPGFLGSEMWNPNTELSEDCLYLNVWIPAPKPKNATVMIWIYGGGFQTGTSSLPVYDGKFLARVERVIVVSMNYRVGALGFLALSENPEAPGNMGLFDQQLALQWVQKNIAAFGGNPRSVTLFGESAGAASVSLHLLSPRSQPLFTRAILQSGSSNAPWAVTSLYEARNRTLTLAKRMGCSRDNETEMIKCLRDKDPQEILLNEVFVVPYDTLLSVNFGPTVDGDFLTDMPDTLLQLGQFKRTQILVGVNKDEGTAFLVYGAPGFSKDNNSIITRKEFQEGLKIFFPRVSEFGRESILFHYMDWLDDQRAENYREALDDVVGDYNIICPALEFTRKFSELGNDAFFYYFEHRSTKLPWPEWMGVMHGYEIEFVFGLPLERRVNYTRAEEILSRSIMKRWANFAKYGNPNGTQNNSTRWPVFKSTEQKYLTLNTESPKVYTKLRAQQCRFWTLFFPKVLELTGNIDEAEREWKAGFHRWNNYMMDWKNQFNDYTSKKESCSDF
electric eel acetylcholinesterase (eeAChE), sequence (O42275 24-633): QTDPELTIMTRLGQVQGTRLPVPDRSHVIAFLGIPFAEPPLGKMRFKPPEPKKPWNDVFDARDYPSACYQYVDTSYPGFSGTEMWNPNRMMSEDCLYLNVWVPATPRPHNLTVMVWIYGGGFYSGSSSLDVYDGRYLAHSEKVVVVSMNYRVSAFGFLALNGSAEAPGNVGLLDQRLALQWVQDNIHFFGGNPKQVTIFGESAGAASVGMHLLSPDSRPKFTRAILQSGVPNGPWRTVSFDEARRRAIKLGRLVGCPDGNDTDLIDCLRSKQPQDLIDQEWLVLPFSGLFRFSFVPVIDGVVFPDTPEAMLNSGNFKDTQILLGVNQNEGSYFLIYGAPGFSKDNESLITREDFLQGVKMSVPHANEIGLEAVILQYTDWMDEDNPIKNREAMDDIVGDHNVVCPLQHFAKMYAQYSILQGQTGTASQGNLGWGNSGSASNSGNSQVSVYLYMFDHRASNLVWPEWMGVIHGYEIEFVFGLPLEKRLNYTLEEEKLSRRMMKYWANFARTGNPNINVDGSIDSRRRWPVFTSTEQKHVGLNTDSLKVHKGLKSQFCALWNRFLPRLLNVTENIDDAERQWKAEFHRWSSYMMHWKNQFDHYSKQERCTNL
Aβ1–42 peptide, sequence (P05067 672-713): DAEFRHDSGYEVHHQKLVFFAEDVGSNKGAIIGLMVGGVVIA

`Cc1nnc2n1-c1ccc(Cl)cc1C(c1ccccc1)=NC2` [Alprazolam, reference compound]: in data set [1], the “Prediction of CNS penetration” value is recorded as “High (‘CNS+’ (prediction of high BBB permeation); Pe (10^−6 cm s^−1) > 4.39)”.

For the molecule `C[C@]12CC[C@@H]3c4ccc(O)cc4CC[C@H]3[C@@H]1CC[C@H]2O` [Compound 4, α-estradiol], at CA-II, the Ki was 40.4 µM.

`C[C@H](CCC(=O)O)[C@H]1CC[C@H]2[C@@H]3CC[C@@H]4C[C@H](O)CC[C@]4(C)[C@H]3C[C@H](O)[C@]12C` [Compound 5, deoxycholic acid]: the Ki at CA-II is 51 µM.

Regarding `CC(=O)C1CC[C@H]2[C@@H]3CC=C4CC(N)CC[C@]4(C)[C@H]3CC[C@]12C` (stereo partly drawn) [Compound 12, 1-((8S,9S,10R,13S,14S)-3-amino-10,13-dimethyl-2,3,4,7,8,9,10,11,12,13,14,15,16,17-tetradecahydro-1H-cyclopenta[a]phenanthren-17-yl)ethan-1-one], the results for the 50% inhibitory concentration (IC50) (at human CA-II; in data set [2]) were 73.2 ± 1.14 µM and 67.7 ± 1.09 µM, respectively. Also, in [1], the “Prediction of CNS penetration” value was “High (‘CNS+’ (prediction of high BBB permeation); Pe (10^−6 cm s^−1) > 4.39)”. Further, in data set [1], the “BBB penetration in PAMPA assay” value was “high BBB penetration”. Moreover, the apparent permeability (Papp) in the data set “in vitro” amounted to 19.6 ×10⁻⁶ cm/s.

As for `CC(=O)C1CC[C@H]2[C@@H]3CC=C4CC(NC(=S)Nc5ccc(S(N)(=O)=O)cc5)CC[C@]4(C)[C@H]3CC[C@]12C` (stereo partly drawn) [Compound 15, 4-(3-((8S,9S,10R,13S,14S)-17-Acetyl-10,13-dimethyl-2,3,4,7,8,9,10,11,12,13,14,15,16,17-tetradecahydro-1H-cyclopenta[a]phenanthren-3yl)thioureido)benzenesulfonamide], the 50% inhibitory concentration (IC50) was found to be 48.9 ± 1.37 µM at human CA-II, 13 ± 0.18 µM in [2], 63 ± 1.23 µM at eqBChE and 9.25 ± 0.17 µM against Aβ1–42 peptide. For the same molecule, in [2], the “SI (Selectivity index)” value was 4.8. In addition, the “inhibition of Aβ fibrils” value on Aβ1–42 peptide was “approximately 60%”. For the same molecule, the viability at 5 µM with SH-SY5Y cells (Homo sapiens, SH-SY5Y, read-out: cell viability) was around 75%.

As for `C[C@]12CCC(NC(=S)Nc3ccc(S(N)(=O)=O)cc3)CC1=CC[C@@H]1[C@@H]2CC[C@]2(C)C(C(=O)CNCCc3ccccc3)CC[C@@H]12` (stereo partly drawn) [Compound 24, 4-(3-((8S,9S,10R,13S,14S)-10,13-Dimethyl-17-(phenethylglycyl)-2,3,4,7,8,9,10,11,12,13,14,15,16,17-tetradeca-hydro-1H-cyclopenta[a]phenanthren-3-yl)thioureido)benzenesulfonamide], the IC50 on human CA-II came out at 5.44 ± 0.14 µM; in data set [2], 1.61 ± 0.1 µM; at eqBChE it was 12.8 ± 0.45 µM; against Aβ1–42 peptide it was 29.6 ± 1.21 µM. In data set [2], the “SI (Selectivity index)” value turned out to be 8.0.

In the case of `C[C@]12CCC(NC(=S)Nc3ccc(S(N)(=O)=O)cc3)CC1=CC[C@@H]1[C@@H]2CC[C@]2(C)C(C(=O)CNCc3ccccc3)CC[C@@H]12` (stereo partly drawn) [Compound 25, 4-(3-((8S,9S,10R,13S,14S)-17-(Benzylglycyl)-10,13-di-methyl-2,3,4,7,8,9,10,11,12,13,14,15,16,17-tetradeca-hydro-1H-cyclopenta[a]phenanthren-3-yl)thioureido)benzenesulfonamide], the half-inhibitory concentration (IC50) stood at 1.02 ± 0.01 µM against human CA-II, 0.98 ± 0.1 µM in [2], 11.27 ± 0.11 µM against eqBChE and 12.8 ± 0.15 µM at Aβ1–42 peptide. Moreover, the “SI (Selectivity index)” value in data set [2] was 11.5.

As to `C[C@]12CCC(NC(=S)Nc3ccc(S(N)(=O)=O)cc3)CC1=CC[C@@H]1[C@@H]2CC[C@]2(C)C(C(=O)CN3c4ccccc4Sc4ccccc43)CC[C@@H]12` (stereo partly drawn) [Compound 27, 4-(3-((8S,9S,10R,13S,14S)-17-(2-(10H-Phenothiazin-10-yl)acetyl)-10,13-dimethyl-2,3,4,7,8,9,10,11,12,13,14,15,16,17-tetradecahydro-1H-cyclopenta[a]phenanthren-3-yl)thioureido)benzenesulfonamide], at human CA-II, the IC50 turned out to be 5.18 ± 0.12 µM. In data set [2], half-maximal inhibition (IC50) was put at 0.094 ± 0.002 µM and the “SI (Selectivity index)” value worked out at 166.7. Also, on eqBChE, inhibition was half-maximal at 15.01 ± 0.03 µM (IC50). At Aβ1–42 peptide, half-maximal inhibition (IC50) was put at 5.78 ± 0.07 µM and the “inhibition of Aβ fibrils” value was 85%. In addition, the “protection of SH-SY5Y cells from the toxicity of the Aβ peptide” value in the data set on SH-SY5Y cells (SH-SY5Y cells incubated with Aβ1–42) was “effectively protected”. Further, the cytotoxicity result with SH-SY5Y cells (SH-SY5Y cells, 5 μM) is “completely non-cytotoxic”. Besides, in [1], the “Prediction of CNS penetration” value is “High (‘CNS+’ (prediction of high BBB permeation); Pe (10^−6 cm s^−1) > 4.39)” and the “BBB penetration in PAMPA assay” value was “BBB penetrants”. Besides, in the data set “in vitro”, the Papp turned out to be 18.1 ×10⁻⁶ cm/s.

On to `C[C@]12CCC(NC(=S)Nc3ccc(S(N)(=O)=O)cc3)CC1=CC[C@@H]1[C@@H]2CC[C@]2(C)C(C(=O)CNc3c4c(cc5ccccc35)CCCC4)CC[C@@H]12` (stereo partly drawn) [Compound 28, 4-(3-((8S,9S,10R,13S,14S)-10,13-Dimethyl-17-((1,2,3,4-tetrahydroanthracen-9-yl)glycyl)-2,3,4,7,8,9,10,11,12,13,14,15,16,17-tetradecahydro-1H-cyclopenta[a]phenanthren-3-yl)thioureido)benzenesulfonamide], for which the IC50 against human CA-II amounted to 31.8 ± 1.08 µM; in data set [2], 0.32 ± 0.01 µM; against eqBChE, 13.5 ± 0.09 µM; against Aβ1–42 peptide, 26.37 ± 0.25 µM. Also, the “SI (Selectivity index)” value in [2] turned out to be 42.2.

Consider `COc1cc(/C=C/C(=O)CC(=O)/C=C/c2ccc(O)c(OC)c2)ccc1O` [Curcumin, reference compound], for which, at Aβ1–42 peptide, the “inhibition of Aβ fibrils” value was “approximately 60%”.

For the molecule `CCn1cc(C(=O)O)c(=O)c2cc(F)c(N3CCNC(C)C3)c(F)c21` (stereo not shown) [Lomefloxacin, reference compound], in [1], the “Prediction of CNS penetration” value is “No (‘CNS−’ (prediction of low BBB permeation); Pe (10^−6 cm s^−1) < 1.78)”.

Regarding `C[C@]12CC[C@@H]3c4ccc(O)cc4CC[C@H]3[C@@H]1CCC2=O` [oestrone], at CA-II, the inhibitory constant (Ki) is 50.8 µM.

For hyocholic acid [Compound 3], the inhibition constant (Ki) on CA-II was 38.9 µM.

For the molecule isosarcodine, the inhibition constant Ki at AChE is 21.8 µM.

As usually defined, the Ki is the dissociation constant of the complex between target and ligand, obtained from inhibition or displacement. The term IC50 denotes the point on the concentration scale where inhibition reaches its midpoint. Lower therefore signals higher potency. What is called Papp is a coefficient for how fast a substance crosses the barrier. Low readings indicate slow passage, high ones fast passage. What is called viability is the share of living cells, or the viability signal relative to a control.
